This is an account of results in US10316038B2, “Pyrrolopyrimidine ITK inhibitors for treating inflammation and cancer” (ACLARIS THERAPEUTICS, INC., priority 2017, dated 2019).

Like-named read-outs stand apart in the source and are kept apart here.

For test [1], the system named is ITK phosphorylation of its substrate, PLCγ1, at Y783. Put plainly: ITK target modulation assay (phospho-Y783 PLCγ1 immunoblot in Jurkat T cells). It is filed as cell-based. Conditions: 2 hours compound, CD3/CD28 Dynabeads stimulation 100 sec, anti-phospho-Y783 PLCγ1 immunoblot, read-out: PLC-γ Inhibition IC50. Put shortly: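 Human Jurkat T cells (4 million per tube) were pretreated with compound for 2 hours at 37° C. They were then stimulated with CD3/CD28 Dynabeads (1 bead per cell) for 100 sec and lysed. Lysates were resolved by SDS-PAGE and immunoblotted for phospho-PLCγ1, with HRP secondary antibody and ECL detection.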

Test [2] concerns the target T1, ITK (Homo sapiens, UniProt Q08881).
T1 sequence (Q08881 1-620): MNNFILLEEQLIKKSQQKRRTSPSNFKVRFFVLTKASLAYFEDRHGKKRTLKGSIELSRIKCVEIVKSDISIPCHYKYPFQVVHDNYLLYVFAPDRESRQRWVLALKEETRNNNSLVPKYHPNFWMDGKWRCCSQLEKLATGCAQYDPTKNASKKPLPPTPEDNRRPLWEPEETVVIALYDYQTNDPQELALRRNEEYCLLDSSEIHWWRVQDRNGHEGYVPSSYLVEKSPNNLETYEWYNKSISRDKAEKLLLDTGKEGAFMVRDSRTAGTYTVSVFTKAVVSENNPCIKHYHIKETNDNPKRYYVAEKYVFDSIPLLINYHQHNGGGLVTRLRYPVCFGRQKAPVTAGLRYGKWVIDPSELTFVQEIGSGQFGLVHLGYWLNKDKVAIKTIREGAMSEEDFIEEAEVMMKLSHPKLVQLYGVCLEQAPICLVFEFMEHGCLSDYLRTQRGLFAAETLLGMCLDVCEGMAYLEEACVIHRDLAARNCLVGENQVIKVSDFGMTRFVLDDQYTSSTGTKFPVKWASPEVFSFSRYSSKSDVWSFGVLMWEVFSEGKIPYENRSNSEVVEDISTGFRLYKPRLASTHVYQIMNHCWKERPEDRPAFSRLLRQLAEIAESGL
Kind of test: ITK inhibitor binding potency (LanthaScreen competitive binding assay). Conditions: TR-FRET competitive binding, 10 nM ITK, 50 nM kinase tracer-236; pre-incubation condition not given; read-out: ITK Inhibition IC50. Put shortly:
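TR-FRET tracer displacement using 10 nM ITK, 2 nM Eu-anti-GST antibody, 50 nM kinase tracer-236 in 20 mM HEPES pH 7.5, 10 mM MgCl2, 0.01% BSA, 0.0005% Tween-20, 2% DMSO. Run with or without 2 h compound–ITK pre-incubation before tracer; 11-point dose-response 20 uM–0.34 nM, IC50 from 4-parameter fit of emission ratio.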
(In general: Time-resolved FRET reads energy transfer from a long-lived donor to a nearby acceptor.)

As for `C=CC(=O)Nc1cc(-c2cnc3[nH]cc(-c4cccc(C#N)c4)c3c2)cc(C(F)(F)F)c1` [Example 7, N-(3-(3-(3-cyano-phenyl)-1H-pyrrolo[2,3-b]-pyridin-5-yl)-5-(trifluoromethyl)-phenyl)acrylamide], the half-inhibitory concentration (IC50) (as a rule, the concentration needed to halve the response being measured) is at most 1 µM in test [1] (Homo sapiens, Jurkat, 2 h) and at most 1 µM in test [2].
Turning to `CN(C)C/C=C/C(=O)Nc1cncc(-c2cnc3[nH]cc(-c4ccnc(C#N)c4)c3c2)c1` [Example 61, (E)-N-(5-(3-(2-cyanopyridin-4-yl)-1H-pyrrolo-[2,3-b]pyridin-5-yl)pyridin-3-yl)-4-(dimethyl-amino)but-2-enamide], the IC50 was 1 to 5 µM in test [1] (Human Jurkat T cells) and at most 0.1 µM in test [2].
On to `CN(C)C/C=C/C(=O)Nc1cncc(-c2cnc3[nH]cc(-c4ccncn4)c3c2)c1` [Example 57, (E)-4-(dimethyl-amino)-N-(5-(3-(pyrimidin-4-yl)-1H-pyrrolo[2,3-b]pyridin-5-yl)-pyridin-3-yl)but-2-enamide], for which the IC50 is over 5 µM in test [1] (Homo sapiens, Jurkat, 2 h) and at most 0.1 µM in test [2].
As for `C=CC(=O)Nc1cc(-c2cnc3[nH]cc(-c4cccc(C)c4)c3c2)cc(C(F)(F)F)c1` [Example 59, N-(3-(3-(m-tolyl)-1H-pyrrolo[2,3-b]-pyridin-5-yl)-5-(trifluoromethyl)-phenyl)acrylamide], the IC50 in test [1] (Homo sapiens, Jurkat, 2 h) is over 5 µM; in test [2], at most 1 µM.
Turning to `C=CC(=O)N(C)c1cncc(-c2cnc3[nH]cc(-c4cccc(C#N)c4)c3c2)c1` [Example 66, N-(5-(3-(3-cyano-phenyl)-1H-pyrrolo[2,3-b]-pyridin-5-yl)-pyridin-3-yl)-N-methylacrylamide], the IC50 in test [1] (Homo sapiens, Jurkat, 2 h) was at most 1 µM; in test [2], at most 0.1 µM.
As for `C=CC(=O)Nc1cccc(-c2cnc3[nH]cc(-c4cccc(C#N)c4)c3c2C)c1` [Example 43, N-(3-(3-(3-cyano-phenyl)-4-methyl-1H-pyrrolo[2,3-b]pyridin-5-yl)-phenyl)acrylamide], the IC50 in test [1] (Homo sapiens, Jurkat, 2 h) was at most 1 µM; in test [2], at most 0.1 µM.
For `CN(C)C/C=C/C(=O)N(C)c1cncc(-c2cnc3[nH]cc(-c4cccc(C#N)c4)c3c2)c1` [Example 72, (E)-N-(5-(3-(3-cyanophenyl)-1H-pyrrolo[2,3-b]-pyridin-5-yl)-pyridin-3-yl)-4-(dimethylamino)-N-methylbut-2-enamide], the IC50 was 1 to 5 µM in test [1] (Homo sapiens, Jurkat, 2 h) and at most 0.1 µM in test [2].
The like results for `Cc1cc2c(-c3c[nH]c4ncc(-c5cc(NC(=O)/C=C/CN(C)C)cc(C(F)(F)F)c5)cc34)ccnc2[nH]1` [Example 14, (E)-4-(dimethyl-amino)-N-(3-(2′-methyl-1H,1′H-[3,4′-bipyrrolo-[2,3-b]pyridin]-5-yl)-5-(trifluoro-methyl)phenyl)-but-2-enamide] were, in that order, at most 1 µM and at most 0.1 µM.
Consider `C=CC(=O)Nc1cc(F)cc(-c2cnc3[nH]cc(-c4cccc(C#N)c4)c3c2)c1` [Example 69, N-(3-(3-(3-cyano-phenyl)-1H-pyrrolo[2,3-b]-pyridin-5-yl)-5-fluorophenyl)-acrylamide], for which the IC50 is over 5 µM in test [1] (Homo sapiens, Jurkat, 2 h) and at most 0.1 µM in test [2].
Turning to `CN(C)C/C=C/C(=O)Nc1cncc(-c2cnc3[nH]cc(-c4ccnc(C#N)c4)c3c2)c1` [Example 36, (E)-N-(5-(3-(2-cyanopyridin-4-yl)-1H-pyrrolo-[2,3-b]pyridin-5-yl)pyridin-3-yl)-4-(dimethyl-amino)but-2-enamide], the half-inhibitory concentration (IC50) in test [1] (Human Jurkat T cells) was at most 1 µM; in test [2] it was at most 0.1 µM.
In the case of `C=CC(=O)Nc1cc(OC)cc(-c2cnc3[nH]cc(-c4ccnc(OC)c4)c3c2)c1` [Example 26, N-(3-methoxy-5-(3-(2-methoxy-pyridin-4-yl)-1H-pyrrolo[2,3-b]-pyridin-5-yl)-phenyl)acrylamide], the half-inhibitory concentration (IC50) in test [1] (Homo sapiens, Jurkat, 2 h) is at most 1 µM; in test [2] it was at most 0.1 µM.
The like results for `CN(C)C/C=C/C(=O)Nc1cc(-c2cnc3[nH]cc(-c4ccnc5[nH]ccc45)c3c2)cc(C(F)(F)F)c1` [Example 54, (E)-N-(3-(1H,1′H-[3,4′-bipyrrolo-[2,3-b]pyridin]-5-yl)-5-(trifluoro-methyl)phenyl)-4-(dimethylamino)-but-2-enamide] were, in that order, 1 to 5 µM and at most 1 µM.
As for `C=CC(=O)Nc1cc(-c2cnc3[nH]cc(-c4cccc(F)c4)c3c2)cc(C(F)(F)F)c1` [Example 63, N-(3-(3-(3-fluoro-phenyl)-1H-pyrrolo[2,3-b]-pyridin-5-yl)-5-(trifluoro-methyl)phenyl)-acrylamide], the IC50 in test [1] (Homo sapiens, Jurkat, 2 h) was 1 to 5 µM; in test [2], at most 1 µM.
Consider `CN(C)C/C=C/C(=O)Nc1cc(-c2cnc3[nH]cc(-c4ccnc(C#N)c4)c3c2)cc(C(F)(F)F)c1` [Example 40, (E)-N-(3-(3-(2-cyanopyridin-4-yl)-1H-pyrrolo-[2,3-b]pyridin-5-yl)-5-(trifluoro-methyl)phenyl)-4-(dimethyl-amino)but-2-enamide], for which the IC50 in test [1] (Homo sapiens, Jurkat, 2 h) is at most 1 µM; in test [2], at most 0.1 µM.
With `COc1cc(-c2c[nH]c3ncc(-c4cncc(NC(=O)/C=C/CN(C)C)c4)cc23)ccn1` [Example 71, (E)-4-(dimethyl-amino)-N-(5-(3-(2-methoxypyridin-4-yl)-1H-pyrrolo[2,3-b]pyridin-5-yl)-pyridin-3-yl)but-2-enamide], the IC50 in test [1] (Homo sapiens, Jurkat, 2 h) is at most 1 µM; in test [2], at most 0.1 µM.
Turning to `CN(C)C/C=C/C(=O)Nc1cc(-c2cnc3[nH]cc(-c4cccc(C#N)c4)c3c2)cc(C(F)(F)F)c1` [Example 1, (E)-N-(3-(3-(3-Cyanophenyl)-1H-pyrrolo[2,3-b]pyridin-5-yl)-5-(trifluoromethyl)phenyl)-4-(dimethylamino)but-2-enamide], the IC50 in test [1] (Homo sapiens, Jurkat, 2 h) was at most 1 µM; in test [2] it was at most 0.1 µM.
For the molecule `C=CC(=O)Nc1cc(-c2cnc3[nH]cc(-c4cccc(Cl)c4)c3c2)cc(C(F)(F)F)c1` [Example 58, N-(3-(3-(3-chloro-phenyl)-1H-pyrrolo[2,3-b]-pyridin-5-yl)-5-(trifluoro-methyl)phenyl)-acrylamide], the IC50 in test [1] (Homo sapiens, Jurkat, 2 h) was over 5 µM; in test [2], at most 1 µM.
The like results for `C=CC(=O)Nc1cc(-c2cnc3[nH]cc(-c4cccc(C#N)c4)c3c2)cc(-c2cnn(C)c2)c1` [Example 18, N-(3-(3-(3-cyano-phenyl)-1H-pyrrolo[2,3-b]-pyridin-5-yl)-5-(1-methyl-1H-pyrazol-4-yl)-phenyl)acrylamide] were, in that order, at most 1 µM and at most 0.1 µM.
Turning to `C=CC(=O)Nc1cc(OC)cc(-c2cnc3[nH]cc(-c4ccnc(C#N)c4)c3c2)c1` [Example 51, N-(3-(3-(2-cyano-pyridin-4-yl)-1H-pyrrolo[2,3-b]-pyridin-5-yl)-5-methoxyphenyl)-acrylamide], the IC50 in test [1] (Homo sapiens, Jurkat, 2 h) is over 5 µM; in test [2], at most 0.1 µM.
Take `CN(C)C/C=C/C(=O)Nc1cccc(-c2cnc3[nH]cc(-c4cn(C)c(=O)c5[nH]ccc45)c3c2)c1` [Example 6, (E)-4-(dimethyl-amino)-N-(3-(3-(6-methyl-7-oxo-6,7-dihydro-1H-pyrrolo[2,3-c]-pyridin-4-yl)-1H-pyrrolo[2,3-b]-pyridin-5-yl)-phenyl)but-2-enamide]: the IC50 in test [1] (Homo sapiens, Jurkat, 2 h) was over 5 µM; in test [2], at most 0.1 µM.
